Source: ChEMBL document CHEMBL1150927, “Antineoplastic agents. 398. Isolation and structure elucidation of cephalostatins 18 and 19” (1998)
Converted amounts (≈) assume the structure as drawn.

Tests used:
Format in all cases: functional
[1] = Growth inhibition of human NCI60 cells
NCI-H460 = experiment: Growth inhibition of human NCI-H460 cells
KM-20L2 = experiment: Growth inhibition of human KM20L2 cells
SF-295 = experiment: Growth inhibition of human SF295 cells
P388 = experiment: Cytotoxicity against mouse P388 cells; conditions: read-out: ED50 (the source's name)
OVCAR-3 = experiment: Growth inhibition of human OVCAR-3 cells
SK-MEL-5 = experiment: Growth inhibition of human SK-MEL-5 cells
A498 = experiment: Growth inhibition of human A498 cells

GI50 (NCI-H460)	GI50 (OVCAR-3)	GI50 (SK-MEL-5)	Structure (SMILES)	GI50 [1]	GI50 (KM-20L2)	GI50 (SF-295)	EC50 (P388)	GI50 (A498)
			C[C@@H]1[C@]2(O[C@H]3C=C4[C@@H]5CC[C@H]6Cc7nc8c(nc7C[C@]6(C)[C@H]5C[C@@H](O)[C@]4(C)[C@]31O)C[C@@H]1CC[C@H]3C4=CC[C@@H]5[C@H](C)[C@@]6(OC[C@]45C(=O)C[C@@H]3[C@@]1(C)C8)OC(C)(C)C[C@H]6O)O[C@](C)(CO)C[C@H]2O [CEPHALOSTATIN 1]	2.2 nM				
< 1 ng/mL	< 1 ng/mL	< 1 ng/mL	CO[C@H]1c2nc3c(nc2C[C@@H]2CC[C@H]4C5=C[C@@H]6O[C@]7(O[C@](C)(CO)C[C@H]7O)[C@@H](C)[C@]6(O)[C@@]5(C)[C@H](O)C[C@@H]4[C@]21C)C[C@@]1(C)[C@@H](CC[C@H]2C4=CC[C@@H]5[C@H](C)[C@@]6(OC[C@]45C(=O)C[C@@H]21)OC(C)(C)C[C@H]6O)C3 [CEPHALOSTATIN 18]	21.7 nM	< 1 ng/mL	< 1 ng/mL	4.3 ng/mL (≈ 4.57 nM)	< 1 ng/mL
< 1 ng/mL	< 1 ng/mL	< 1 ng/mL	CO[C@H]1c2nc3c(nc2C[C@@H]2CC[C@H]4C5=CC[C@@H]6[C@H](C)[C@@]7(OC[C@]56C(=O)C[C@@H]4[C@]21C)OC(C)(C)C[C@H]7O)C[C@@]1(C)[C@@H](CC[C@H]2C4=C[C@@H]5O[C@]6(O[C@](C)(CO)C[C@H]6O)[C@@H](C)[C@]5(O)[C@@]4(C)[C@H](O)C[C@@H]21)C3 [CEPHALOSTATIN 19]	16.6 nM	< 1 ng/mL	< 1 ng/mL	7.4 ng/mL (≈ 7.86 nM)	< 1 ng/mL
